From paper PMC11555678, “Improved Broad Spectrum Antifungal Drug Synergies with Cryptomycin, a Cdc50-Inspired Antifungal Peptide” (ACS Infectious Diseases, 2024)
Converted amounts (≈) assume the structure as drawn. Where two headings read alike, the source gives them in different places.

Legend:
C. neoformans Crm1^OE = assay: microbe, parasite or virus in culture; assay type: cell-based, Cryptococcus neoformans; settings: Cryptococcus neoformans, 48 h
In short: (§1)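 Broth microdilution per CLSI M27 in RPMI1640, compounds serially diluted 2-fold from DMSO stock. Overnight YPD cultures washed, resuspended and adjusted to 5000 cfu/mL in RPMI as inoculum. Plates incubated 2 days at 37 °C.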

C. neoformans H99 = assay: microbe, parasite or virus in culture; assay type: cell-based, Cryptococcus neoformans; settings: Cryptococcus neoformans, H99; compound alone; RPMI1640, 37 °C, 48 h; read-out: MIC
In short: as §1

C. neoformans MRL862 = assay: microbe, parasite or virus in culture; assay type: cell-based, Cryptococcus neoformans; settings: RPMI1640, 37 °C, 48 h; for MIC: Cryptococcus neoformans, MRL862, compound alone, read-out: MIC
In short: as §1

C. neoformans apt1Δ = assay: microbe, parasite or virus in culture; assay type: cell-based, Cryptococcus neoformans; settings: Cryptococcus neoformans, 48 h
In short: as §1

C. neoformans apt2Δ = assay: microbe, parasite or virus in culture; assay type: cell-based, Cryptococcus neoformans; settings: Cryptococcus neoformans, 48 h
In short: as §1

C. neoformans apt3Δ = assay: microbe, parasite or virus in culture; assay type: cell-based, Cryptococcus neoformans; settings: Cryptococcus neoformans, 48 h
In short: as §1

C. neoformans apt4Δ = assay: microbe, parasite or virus in culture; assay type: cell-based, Cryptococcus neoformans; settings: Cryptococcus neoformans, 48 h
In short: as §1

C. neoformans cdc50Δ = assay: microbe, parasite or virus in culture; assay type: cell-based, Cryptococcus neoformans; settings: Cryptococcus neoformans, 48 h
In short: as §1

C. neoformans crm1Δ = assay: microbe, parasite or virus in culture; assay type: cell-based, Cryptococcus neoformans; settings: Cryptococcus neoformans, 48 h
In short: as §1

C. albicans SC5413 = assay: microbe, parasite or virus in culture; assay type: cell-based, Candida albicans; settings: Candida albicans, SC5413; compound alone; RPMI1640, 37 °C, 48 h; read-out: MIC
In short: as §1

A. fumigatus AF293 = assay: Drug synergy (MIC in peptide-supplemented media); assay type: cell-based, Aspergillus fumigatus; settings: RPMI1640, 37 °C, 48 h; for MIC of antifungal in combination with KKOO-NH2: MIC = well with <20% growth
Description: (§2) All microdilution assays with fungi were carried out in accordance with CLSI protocols from M27 for yeasts and M38 for filamentous fungi, respectively, unless otherwise specified.[64],[65] Briefly, 96-well plates were charged with RPMI1640 media, with operating volume in the first column, 200 μL, and half operating volume, 100 μL, in the remaining wells. Drug stock solution in DMSO was aliquoted into the first well in each row. Half of the volume in the dosed well was serially diluted 2-fold until column 11. Column 11 was used as the negative growth control, and column 12 was used as the positive growth control. ON yeast cultures in YPD were washed twice in DD-H2O, resuspended in PBS, and adjusted to 5000 cfu/mL in RPMI. The 96-well plate was inoculated with 100 μL aliquots of cell suspension per well. Plates were incubated at 37 °C for 2 days.
To assess drug synergy, the initial media charged to the plate contained the peptide at twice the final operating concentration; the remaining processing steps were identical to the MIC experiment. Upon addition of 100 μL of inoculant, the final operating concentration was achieved. Control MIC plates were prepared alongside drug synergy plates to account for the day-to-day variability in any individual MIC. FIC index is computed using eq 1. All MIC assays and drug synergy assays were completed with two technical replicates per 96-well plate and a minimum of two biological replicates per drug combination. If a difference in MIC between the two technical replicates on the plate were observed, only the higher concentration was reported as the MIC to reduce the possibility of type 1 error (false positive) [drawing 1] 1

Cn H99 = assay: microbe, parasite or virus in culture; assay type: cell-based, Cryptococcus neoformans; settings: Cryptococcus neoformans, H99, 48 h, 37 °C, 48 h, read-out: MIC
Description: (§3) Previous studies have shown that modifying microbiological media with salts such as CaCl2 can have a drastic effect on the growth of fungi and their responses to antifungals.[19],[35] In the case of CaCl2, the divalent cation, Ca^2+, is involved in fungal cell stress response. To understand how the peptide activity may involve calcium and stress response, the MICs of KKOO, KKOO-NH2, FLC, and CAS were assessed as a function of the calcium concentration in liquid YPD media. It was observed that calcium enrichment completely desensitized the wild-type strain to KKOO and KKOO-NH2, Tables 7 and 8, respectively. Effects of calcium enrichment on the susceptibility of Cryptococcus to CAS similar to literature values were recorded, Supporting Information, Table S7.[35]
(§4) In order to control for the effects of enriching YPD with a divalent cation, MICs and ROS production were also measured as a function of the MgCl2 supplement at the same millimolar concentrations of cation as in the CaCl2-modified experiments. […] No peptide susceptibility changes were observed against Cn cdc50Δ in magnesium-enriched media, Table S9. ROS production in H99 induced by peptide exposure was inhibited after 30 min of treatment in the magnesium-enriched condition, similar to the levels observed in the calcium-enriched media at 16 μg/mL KKOO-NH2, Figure S1. […] The link between peptide activity and calcium homeostasis may be vital in understanding precisely how the peptide kills fungal cells and requires more research to elucidate.
as §2

Cn cdc50Δ = assay: microbe, parasite or virus in culture; assay type: cell-based, Cryptococcus neoformans; settings: 48 h, 37 °C, 48 h
Description: as §3, §4, §2

[1] = +0 μg/mL KKOO (control), CAS: paradoxical growth, MIC = <20% growth
[2] = +0 μg/mL KKOO-NH2 (control), CAS: paradoxical growth
[3] = +1 μg/mL KKOO-NH2, CAS: paradoxical growth
[4] = +1 μg/mL KKOO, CAS: paradoxical growth, MIC = <20% growth
[5] = +2 μg/mL KKOO-NH2, CAS: paradoxical growth
[6] = +2 μg/mL KKOO, CAS: paradoxical growth, MIC = <20% growth
[7] = +4 μg/mL KKOO-NH2, CAS: paradoxical growth
[8] = +4 μg/mL KKOO, CAS: paradoxical growth, MIC = <20% growth
[9] = +8 μg/mL KKOO-NH2, CAS: paradoxical growth
[10] = Cryptococcus neoformans, YPD + 0 mM Ca2+
[11] = Cryptococcus neoformans, YPD + 2.5 mM Ca2+
[12] = Cryptococcus neoformans, YPD + 5 mM Ca2+
[13] = Cryptococcus neoformans, YPD + 10 mM Ca2+
[14] = Cryptococcus neoformans, YPD + 20 mM Ca2+

In the case of `CC[C@H](C)C[C@H](C)CCCCCCCCC(=O)N[C@H]1C[C@@H](O)[C@@H](NCCN)NC(=O)[C@@H]2[C@@H](O)CCN2C(=O)[C@H]([C@H](O)CCN)NC(=O)[C@H]([C@H](O)[C@@H](O)c2ccc(O)cc2)NC(=O)[C@@H]2C[C@@H](O)CN2C(=O)[C@H]([C@@H](C)O)NC1=O` [CAS, caspofungin], the MIC (C. neoformans Crm1^OE) is reported as 16 µg/mL (≈ 14.6 µM), the MIC (C. neoformans H99) is reported as 16 µg/mL (≈ 14.6 µM) and the MIC (C. neoformans MRL862) is reported as 16 µg/mL (≈ 14.6 µM). The MIC (C. neoformans apt1Δ) was 8 µg/mL (≈ 7.32 µM), the MIC (C. neoformans apt2Δ) was 16 µg/mL (≈ 14.6 µM) and the MIC (C. neoformans apt3Δ) was 16 µg/mL (≈ 14.6 µM). It also gave an MIC (C. neoformans apt4Δ) of 16 µg/mL (≈ 14.6 µM), an MIC (C. neoformans cdc50Δ) of 4 µg/mL (≈ 3.66 µM) and an MIC (C. neoformans crm1Δ) of 16 µg/mL (≈ 14.6 µM). The MIC (C. albicans SC5413) was 0.25 µg/mL (≈ 0.229 µM), the “MIC of antifungal in combination with KKOO” value (A. fumigatus AF293; [1]) was 0.125 µg/mL and the “MIC of antifungal in combination with KKOO-NH2” value (shortened to “MIC … with KKOO-NH2”) (A. fumigatus AF293; [2]) was 0.125 µg/mL. The “MIC … with KKOO-NH2” value (A. fumigatus AF293; [3]) was 0.031 µg/mL, the “MIC of antifungal in combination with KKOO” value (A. fumigatus AF293; [4]) was 0.062 µg/mL and the “MIC … with KKOO-NH2” value (A. fumigatus AF293; [5]) was 0.031 µg/mL. The “MIC of antifungal in combination with KKOO” value (A. fumigatus AF293; [6]) was 0.031 µg/mL, the “MIC … with KKOO-NH2” value (A. fumigatus AF293; [7]) was 0.031 µg/mL and the “MIC of antifungal in combination with KKOO” value (A. fumigatus AF293; [8]) was 0.031 µg/mL. The “MIC … with KKOO-NH2” value (A. fumigatus AF293; [9]) was 0.031 µg/mL, the MIC (Cn H99; YPD + 0 mM Ca2+) was 8 µg/mL and the MIC (Cn H99; YPD + 0 mM Mg2+) was 8 µg/mL. It also gave an MIC (Cn H99; YPD + 2.5 mM Ca2+) of 16 µg/mL, an MIC (Cn H99; YPD + 2.5 mM Mg2+) of 16 µg/mL and an MIC (Cn H99; YPD + 5 mM Ca2+) of 32 µg/mL. It also gave an MIC (Cn H99; YPD + 5 mM Mg2+) of 16 µg/mL, an MIC (Cn H99; YPD + 10 mM Ca2+) of 64 µg/mL and an MIC (Cn H99; YPD + 10 mM Mg2+) of 32 µg/mL. The MIC (Cn H99; YPD + 20 mM Mg2+) was 64 µg/mL, the MIC (Cn cdc50Δ; [10]) was 4 µg/mL and the MIC (Cn cdc50Δ; [11]) was 8 µg/mL. It also gave an MIC (Cn cdc50Δ; [12]) of 16 µg/mL, an MIC (Cn cdc50Δ; [13]) of 32 µg/mL and an MIC (Cn cdc50Δ; [14]) of 8 µg/mL. It also gave an MIC (Cn cdc50Δ; YPD + 0 mM Mg2+, unit inferred) of 4 µg/mL, an MIC (Cn cdc50Δ; YPD + 2.5 mM Mg2+, unit inferred) of 8 µg/mL and an MIC (Cn cdc50Δ; YPD + 5 mM Mg2+, unit inferred) of 8 µg/mL. The MIC (Cn cdc50Δ; YPD + 10 mM Mg2+, unit inferred) was 8 µg/mL and the MIC (Cn cdc50Δ; YPD + 20 mM Mg2+, unit inferred) was 8 µg/mL.

In the case of `OC(Cn1cncn1)(Cn1cncn1)c1ccc(F)cc1F` [FLC, fluconazole], the MIC (C. neoformans Crm1^OE) is reported as 0.25 µg/mL (≈ 0.816 µM), the MIC (C. neoformans H99) is reported as 2 µg/mL (≈ 6.53 µM) and the MIC (C. neoformans MRL862) is reported as 32 µg/mL (≈ 104 µM). The “MIC relative to wild-type strain H99 (higher)” value (C. neoformans MRL862) was 16 fold, the MIC (C. neoformans apt1Δ) was 0.5 µg/mL (≈ 1.63 µM) and the MIC (C. neoformans apt2Δ) was 2 µg/mL (≈ 6.53 µM). The MIC (C. neoformans apt3Δ) was 2 µg/mL (≈ 6.53 µM), the MIC (C. neoformans apt4Δ) was 2 µg/mL (≈ 6.53 µM) and the MIC (C. neoformans cdc50Δ) was 0.125 µg/mL (≈ 0.408 µM). The MIC (C. neoformans crm1Δ) was 2 µg/mL (≈ 6.53 µM), the MIC (C. albicans SC5413) was greater than 16 µg/mL and the “MIC of antifungal in combination with KKOO” value (A. fumigatus AF293; [1]) was greater than 128 µg/mL. The “MIC … with KKOO-NH2” value (A. fumigatus AF293; [2]) was greater than 128 µg/mL, the “MIC … with KKOO-NH2” value (A. fumigatus AF293; [3]) was greater than 128 µg/mL and the “MIC of antifungal in combination with KKOO” value (A. fumigatus AF293; [4]) was greater than 128 µg/mL. For the same compound, the “MIC … with KKOO-NH2” value (A. fumigatus AF293; [5]) was greater than 128 µg/mL, the “MIC of antifungal in combination with KKOO” value (A. fumigatus AF293; [6]) was greater than 128 µg/mL and the “MIC … with KKOO-NH2” value (A. fumigatus AF293; [7]) was greater than 128 µg/mL. The “MIC of antifungal in combination with KKOO” value (A. fumigatus AF293; [8]) was greater than 128 µg/mL, the “MIC … with KKOO-NH2” value (A. fumigatus AF293; [9]) was greater than 128 µg/mL and the “MIC of antifungal in combination with KKOO” value (A. fumigatus AF293; +8 μg/mL KKOO) was greater than 128 µg/mL. The MIC (Cn H99; YPD + 0 mM Ca2+) was 8 µg/mL, the MIC (Cn H99; YPD + 0 mM Mg2+) was 4 µg/mL and the MIC (Cn H99; YPD + 2.5 mM Ca2+) was 8 µg/mL. It also gave an MIC (Cn H99; YPD + 2.5 mM Mg2+) of 4 µg/mL, an MIC (Cn H99; YPD + 5 mM Ca2+) of 8 µg/mL and an MIC (Cn H99; YPD + 5 mM Mg2+) of 2 µg/mL. The MIC (Cn H99; YPD + 10 mM Ca2+) was 8 µg/mL, the MIC (Cn H99; YPD + 10 mM Mg2+) was 2 µg/mL and the MIC (Cn H99; YPD + 20 mM Ca2+) was 8 µg/mL. The MIC (Cn H99; YPD + 20 mM Mg2+) was 2 µg/mL, the MIC (Cn cdc50Δ; [10]) was 0.5 µg/mL and the MIC (Cn cdc50Δ; [11]) was 0.5 µg/mL. It also gave an MIC (Cn cdc50Δ; [12]) of 0.5 µg/mL, an MIC (Cn cdc50Δ; [13]) of 0.25 µg/mL and an MIC (Cn cdc50Δ; [14]) of 0.25 µg/mL. The MIC (Cn cdc50Δ; YPD + 0 mM Mg2+, unit not given) was “½”, the MIC (Cn cdc50Δ; YPD + 2.5 mM Mg2+, unit not given) was “¼” and the MIC (Cn cdc50Δ; YPD + 5 mM Mg2+, unit not given) was “¼”. The MIC (Cn cdc50Δ; YPD + 10 mM Mg2+, unit not given) was 1/8 and the MIC (Cn cdc50Δ; YPD + 20 mM Mg2+, unit not given) was 1/16.
